Results reported in PMC12169847, “Targeted protein degradation by KLHDC2 ligands identified by high-throughput screening” (eLife, 2025).
“And” between values parts separate entries of the source, which are not always exact repeats. Identical values can stand only once. Like-named read-outs stand apart in the source and are kept apart here. Values belong to the compound of their own block, whether it stands above or below them.

Tests used:
KEAP1 Kelch domain = target: T1, KEAP1 Kelch domain (Homo sapiens, UniProt Q14145); assay: Fluorescence polarization counter-screen, KEAP1 with TAMRA-NRF2 peptide; assay type: binding; conditions: for Fluorescence polarization signal: KEAP1, replicate wells
T1 construct: HIS6 (N); made in house; host or cells: Escherichia coli BL21(DE3)

KLHDC2 = target: T2, KLHDC2 (Homo sapiens, UniProt Q9Y2U9); assay: Surface plasmon resonance direct binding to immobilized KLHDC2; conditions: read-out: KLHDC2 Kd (SPR)
T2 sequence (Q9Y2U9 1-362): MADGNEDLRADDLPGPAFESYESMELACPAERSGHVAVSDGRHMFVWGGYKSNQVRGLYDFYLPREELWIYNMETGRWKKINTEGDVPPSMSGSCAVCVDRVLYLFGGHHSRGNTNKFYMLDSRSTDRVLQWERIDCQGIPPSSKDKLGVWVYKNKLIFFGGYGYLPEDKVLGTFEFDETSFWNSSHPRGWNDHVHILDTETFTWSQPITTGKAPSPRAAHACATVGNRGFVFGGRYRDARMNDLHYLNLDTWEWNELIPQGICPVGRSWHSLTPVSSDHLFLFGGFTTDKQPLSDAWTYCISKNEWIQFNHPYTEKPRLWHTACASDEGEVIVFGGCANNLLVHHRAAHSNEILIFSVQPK

GST-tagged KLHDC2 = target: T3, GST-tagged KLHDC2 (Homo sapiens, UniProt Q9Y2U9); assay: Fluorescence polarization competition assay, KLHDC2 with TAMRA-SelK peptide (384-well); conditions: for Fluorescence polarization signal: KLHDC2, replicate wells
T3 sequence (Q9Y2U9 1-362): T2 sequence (Q9Y2U9 1-362)

BRD4 [1] = target: T4, BRD4 (Homo sapiens, UniProt O60885); assay: Cell-based endogenous BRD4 degradation assay (western blot) in SK-BR-3; set-up: expressed in transfected cells
Description: SK-BR-3 cells (0.25×10^6 cells/well, 2 mL) were seeded in six-well polystyrene plates for 24 hr before the compounds were added at the indicated doses as DMSO solutions. The protease inhibitor MG132 (Selleck Chemicals) was added to the sixth well along with 10 μM 3d at a concentration of 10 μM. The plate was incubated at 37°C for 24 hr, and the cells from each well were collected and lysed in RIPA buffer (Thermo Fisher 89900) with Halt protease and phosphatase inhibitor cocktail (Thermo Fisher 78440). The cellular content was extracted on ice for 20 min, and the protein concentration was determined by BCA assay (Thermo Fisher 23327). 2 μg of each sample was resolved via SDS-PAGE gels, and western blotting was used to visualize the endogenous BRD4 level (BRD4 primary antibody Abcam plc, Ab128874, RRID:AB_11145462, 1:10,000 dilution) with Bio-Rad Gel Doc XR+ imaging system.

BRD4 [2] = target: T4, BRD4; assay: Cell-based HiBiT BRD4 degradation assay in HEK293T; set-up: expressed in transfected cells; host or cells: HEK293T; conditions: for Relative BRD4 levels (HiBiT luminescence): replicate wells; for DC50: BRD4-HiBiT, HEK293T;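 for all read-outs here: HEK293T cells transiently expressing HiBiT-tagged BRD4, exposed to serially diluted compounds, then lysed for a luminescence read-out that tracks the amount of cellular BRD4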

T1 sequence (Q14145 321-609 limits assumed): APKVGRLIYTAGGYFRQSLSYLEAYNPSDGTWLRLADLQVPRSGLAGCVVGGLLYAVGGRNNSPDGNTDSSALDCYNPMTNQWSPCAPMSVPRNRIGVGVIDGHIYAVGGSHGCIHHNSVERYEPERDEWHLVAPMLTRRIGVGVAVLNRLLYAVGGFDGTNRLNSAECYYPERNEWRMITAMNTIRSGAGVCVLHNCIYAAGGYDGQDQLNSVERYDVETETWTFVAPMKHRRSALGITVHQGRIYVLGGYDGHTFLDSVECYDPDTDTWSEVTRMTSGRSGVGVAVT

Fluorescence polarization signal (KEAP1 Kelch domain; 0.169351 nM): 20 and 24 and 25 | Fluorescence polarization signal (KEAP1 Kelch domain; 0.508053 nM): 22 and 20 and 32 | Fluorescence polarization signal (KEAP1 Kelch domain; 1.52416 nM): 29 and 21 and 41 | Fluorescence polarization signal (KEAP1 Kelch domain; 4.57247 nM): 16 and 24 and 43 | Fluorescence polarization signal (KEAP1 Kelch domain; 13.7174 nM): 24 (2×) and 27 | Fluorescence polarization signal (KEAP1 Kelch domain; 41.1523 nM): 20 and 18 and 26 | Fluorescence polarization signal (KEAP1 Kelch domain; 123.457 nM): 20 and 35 and 31 | Fluorescence polarization signal (KEAP1 Kelch domain; 370.37 nM): 31 and 22 and 25 | Fluorescence polarization signal (KEAP1 Kelch domain; 1111.11 nM): 25 and 23 and 18 | Fluorescence polarization signal (KEAP1 Kelch domain; 3333.33 nM): 15 and 26 and 34 | Fluorescence polarization signal (KEAP1 Kelch domain; 10000 nM): 31 and 14 and 27 | inhibitory effect in the KEAP1 counter-screening assay (KEAP1 Kelch domain; concentrations less than 20 µM): no inhibitory effect | EC50 (KEAP1 Kelch domain; in figure): > 20000 nM | Kd (KLHDC2): 380 nM and 379 nM | EC50 (GST-tagged KLHDC2): 760 nM | IC50 (GST-tagged KLHDC2): 760 nM | Fluorescence polarization signal (GST-tagged KLHDC2; 0.169351 nM): -4 and 1 and 6 | Fluorescence polarization signal (GST-tagged KLHDC2; 0.508053 nM): -11.1 and -2.3 and 1 | Fluorescence polarization signal (GST-tagged KLHDC2; 1.52416 nM): -1.4 and 2 and 0 | Fluorescence polarization signal (GST-tagged KLHDC2; 4.57247 nM): 1 (2×) and -8.1 | Fluorescence polarization signal (GST-tagged KLHDC2; 13.7174 nM): 1 and -4 and 0 | Fluorescence polarization signal (GST-tagged KLHDC2; 41.1523 nM): 1 and -1.4 and -5.1 | Fluorescence polarization signal (GST-tagged KLHDC2; 123.457 nM): 0 and -2.6 and -8.8 | Fluorescence polarization signal (GST-tagged KLHDC2; 370.37 nM): -30.6 and -31 and -24.7 | Fluorescence polarization signal (GST-tagged KLHDC2; 1111.11 nM): -67.8 and -66.2 and -52.8 | Fluorescence polarization signal (GST-tagged KLHDC2; 3333.33 nM): -93.4 and -88.4 and -82.2 | Fluorescence polarization signal (GST-tagged KLHDC2; 10000 nM): -84.4 and -101.233 and -107.845
Compound: O=C(O)c1cc(Cl)cc2c1NC(c1cccc(C(F)(F)F)c1)C1C3CCC(C3)C21 (stereo not shown) [compound 5]

endogenous BRD4 protein degraded (BRD4 [1]; SK-BR-3, 100 nM, 24 hr): more than 60% | endogenous BRD4 degradation (maximal) (BRD4 [1]; SK-BR-3, 10 µM, 24 hr): 94% | BRD4 remaining (BRD4 [1]; SK-BR-3, 10 µM, DMSO condition, 24 hr): 4% | BRD4 remaining (BRD4 [1]; SK-BR-3, 10 µM, co-treated with MG-132, 24 hr): 29% | Relative BRD4 levels (HiBiT luminescence) (BRD4 [2]; 4 hr, 0.338702 nM): 0.9416 and 0.7691 and 0.8677 | Relative BRD4 levels (HiBiT luminescence) (BRD4 [2]; 4 hr, 1.01611 nM): 1.421 and 0.6823 and 1.057 | Relative BRD4 levels (HiBiT luminescence) (BRD4 [2]; 4 hr, 3.04832 nM): 0.9694 and 0.7305 and 0.8098 | Relative BRD4 levels (HiBiT luminescence) (BRD4 [2]; 4 hr, 9.14495 nM): 0.8569 and 0.4906 and 0.8452 | Relative BRD4 levels (HiBiT luminescence) (BRD4 [2]; 4 hr, 27.4348 nM): 0.6224 and 0.978 and 0.6213 | Relative BRD4 levels (HiBiT luminescence) (BRD4 [2]; 4 hr, 82.3045 nM): 0.6909 and 0.6031 and 0.4253 | Relative BRD4 levels (HiBiT luminescence) (BRD4 [2]; 4 hr, 246.914 nM): 0.2967 and 0.3567 and 0.4735 | Relative BRD4 levels (HiBiT luminescence) (BRD4 [2]; 4 hr, 740.741 nM): 0.2624 and 0.2035 and 0.2314 | Relative BRD4 levels (HiBiT luminescence) (BRD4 [2]; 4 hr, 2222.22 nM): 0.1885 and 0.1435 and 0.2046 | Relative BRD4 levels (HiBiT luminescence) (BRD4 [2]; 4 hr, 6666.67 nM): 0.1767 and 0.1639 and 0.1864 | Relative BRD4 levels (HiBiT luminescence) (BRD4 [2]; 4 hr, 20000 nM): 0.2282 and 0.2025 and 0.226 | Relative BRD4 levels (HiBiT luminescence) (BRD4 [2]; 24 hr, 0.338702 nM): 0.9416 and 0.7691 and 0.8677 | Relative BRD4 levels (HiBiT luminescence) (BRD4 [2]; 24 hr, 1.01611 nM): 1.421 and 0.6823 and 1.057 | Relative BRD4 levels (HiBiT luminescence) (BRD4 [2]; 24 hr, 3.04832 nM): 0.9694 and 0.7305 and 0.8098 | Relative BRD4 levels (HiBiT luminescence) (BRD4 [2]; 24 hr, 9.14495 nM): 0.8569 and 0.4906 and 0.8452 | Relative BRD4 levels (HiBiT luminescence) (BRD4 [2]; 24 hr, 27.4348 nM): 0.6224 and 0.978 and 0.6213 | Relative BRD4 levels (HiBiT luminescence) (BRD4 [2]; 24 hr, 82.3045 nM): 0.6909 and 0.6031 and 0.4253 | Relative BRD4 levels (HiBiT luminescence) (BRD4 [2]; 24 hr, 246.914 nM): 0.2967 and 0.3567 and 0.4735 | Relative BRD4 levels (HiBiT luminescence) (BRD4 [2]; 24 hr, 740.741 nM): 0.2624 and 0.2035 and 0.2314 | Relative BRD4 levels (HiBiT luminescence) (BRD4 [2]; 24 hr, 2222.22 nM): 0.1885 and 0.1435 and 0.2046 | Relative BRD4 levels (HiBiT luminescence) (BRD4 [2]; 24 hr, 6666.67 nM): 0.1767 and 0.1639 and 0.1864 | Relative BRD4 levels (HiBiT luminescence) (BRD4 [2]; 24 hr, 20000 nM): 0.2282 and 0.2025 and 0.226 | DC50 (BRD4 [2]; 4 hr, read-out: DC50 (4 hr)): 164 nM | DC50 (BRD4 [2]; 24 hr, read-out: DC50 (24 hr)): 80 nM
Compound: COC(=O)c1cc(Cl)cc2c1NC(c1cccc(OCCC3CCN(CC4CCN(C(=O)CC5N=C(c6ccc(Cl)cc6)c6c(sc(C)c6C)-n6c(C)nnc65)CC4)CC3)c1)C1C3CCC(C3)C21 [compound 8, Methyl 2-chloro-6-(3-(2-(1-((1-(2-((S)–4-(4-chlorophenyl)-2,3,9-trimethyl-6H-thieno[3,2 f][1,2,4]triazolo[4,3 a][1,4]diazepin-6-yl)acetyl)piperidin-4-yl)methyl)piperidin-4-yl)ethoxy)phenyl)-5,6,6a,7,8,9,10,10a-octahydro-7,10-methanophenanthridine-4-carboxylate]
